Laboratory results: ChEMBL document CHEMBL1201862, “PubChem BioAssay data set” (2004)
Each block holds one compound with its values, some of them ahead of it. The source made the active and inactive calls.

Experiments:
Hexokinase = Hexokinase (Trypanosoma brucei, UniProt Q38C41); assay: Confirmation assay for inhibitors of Trypanosoma brucei hexokinase 1-Analogue-first series. [Related pubchem assays (depositor defined):AID1430, AID1632, AID2516, AID2560, AID2579, AID2600, AID449725, AID492951]; type: functional
Mu-type opioid receptor = Mu-type opioid receptor (Homo sapiens, UniProt P35372); assay: SAR Analysis of Antagonists of the MOR Receptor using an Image-Based Assay - Set 3. [Related pubchem assays (depositor defined):AID1777, AID1785, AID1786, AID1966, AID2133, AID2136, AID2284, AID2285, AID2420]; type: functional
[1] = molecular target: Delta-type opioid receptor (Homo sapiens, UniProt P41143); assay: SAR Analysis of Antagonists of the DOR Receptor using an Image-Based Assay - Set 3. [Related pubchem assays (depositor defined):AID1777, AID1785]; type: functional;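 further: U2OS cells expressing DOR1 and beta-arrestin GFP stimulated with 100 nM SNC80; imaging of GFP-tagged beta-arrestin moving into spots after receptor activation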
[2] = molecular target: T1, Kappa-type opioid receptor (Homo sapiens, UniProt P41145); assay: SAR analysis of small molecule antagonists of the kappa opioid receptor via a luminescent beta-arrestin assay - Set 3. [Related pubchem assays (depositor defined):AID1777, AID1778, AID1785, AID1786, AID1966, AID2133, AID2136, AID2285, AID2495]; type: functional
[3] = molecular target: T1, Kappa-type opioid receptor; assay: SAR analysis of Antagonists of the Kappa Opioid Receptor (KOR) using an Image-Based Assay - Set 3. [Related pubchem assays (depositor defined):AID1777, AID1785]; type: functional
[4] = molecular target: T2, Tyrosine-protein phosphatase non-receptor type 7 (Homo sapiens, UniProt P35236); assay: redox-dependent HePTP inhibition, mechanism study, biochemical, fluorescence (AID 2068); type: functional
T2 sequence (P35236 whole entry): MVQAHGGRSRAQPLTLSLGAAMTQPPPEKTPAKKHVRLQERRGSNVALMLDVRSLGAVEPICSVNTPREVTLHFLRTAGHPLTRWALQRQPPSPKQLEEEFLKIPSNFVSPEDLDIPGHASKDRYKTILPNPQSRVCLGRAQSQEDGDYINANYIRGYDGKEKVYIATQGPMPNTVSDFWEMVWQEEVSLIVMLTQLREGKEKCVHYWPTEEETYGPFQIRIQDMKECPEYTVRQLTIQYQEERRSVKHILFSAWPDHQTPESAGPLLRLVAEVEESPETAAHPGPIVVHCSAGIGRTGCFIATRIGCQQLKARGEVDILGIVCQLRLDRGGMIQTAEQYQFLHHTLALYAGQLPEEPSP

[5] = molecular target: T3, RNA-binding protein pos-1 (Caenorhabditis elegans, UniProt G5EF15); assay: inhibitors of POS-1/mex-3 RNA binding, dose response, biochemical, fluorescence polarization (AID 1964);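 further: purified POS-1 fused to maltose binding protein made in E. coli; potency of compounds blocking POS-1 binding to fluorescent RNA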
T3 sequence (G5EF15 whole entry): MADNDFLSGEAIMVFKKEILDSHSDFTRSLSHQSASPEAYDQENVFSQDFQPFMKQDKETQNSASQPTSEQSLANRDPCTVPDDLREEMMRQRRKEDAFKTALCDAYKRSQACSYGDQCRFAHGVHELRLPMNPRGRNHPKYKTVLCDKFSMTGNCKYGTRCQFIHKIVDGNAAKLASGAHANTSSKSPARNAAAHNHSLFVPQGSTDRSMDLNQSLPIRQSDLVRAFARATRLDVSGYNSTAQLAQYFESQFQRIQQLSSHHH

[6] = molecular target: T4, Zinc finger protein mex-5 (Caenorhabditis elegans, UniProt Q9XUB2); assay: MEX-5/TCR-2 RNA interaction inhibitors, dose response, biochemical, C. elegans, fluorescence polarization (AID 1960)
T4 sequence (Q9XUB2 whole entry): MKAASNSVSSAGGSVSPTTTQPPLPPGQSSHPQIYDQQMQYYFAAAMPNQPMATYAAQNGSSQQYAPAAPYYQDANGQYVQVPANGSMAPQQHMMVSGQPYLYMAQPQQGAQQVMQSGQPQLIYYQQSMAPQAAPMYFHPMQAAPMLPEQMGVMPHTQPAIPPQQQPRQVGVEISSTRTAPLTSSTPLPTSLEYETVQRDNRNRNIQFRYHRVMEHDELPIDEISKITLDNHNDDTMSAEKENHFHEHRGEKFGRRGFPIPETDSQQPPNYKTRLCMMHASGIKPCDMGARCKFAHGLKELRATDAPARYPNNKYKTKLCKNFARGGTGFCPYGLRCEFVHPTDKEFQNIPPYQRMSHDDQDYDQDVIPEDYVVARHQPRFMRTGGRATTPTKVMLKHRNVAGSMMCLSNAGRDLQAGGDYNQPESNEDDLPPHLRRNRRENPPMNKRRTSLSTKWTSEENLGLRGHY

[7] = molecular target: Induced myeloid leukemia cell differentiation protein Mcl-1 (Homo sapiens, UniProt Q07820); type: functional
Troponin, cardiac muscle = Troponin, cardiac muscle (Homo sapiens, UniProt P19429+P45379+P63316); assay: inhibitors of cardiac thin filament calcium sensitivity, dose response, biochemical, fluorescence, cardiac regulated thin filaments, triplicate IC50 (AID 504742); type: protein-complex assay
Genome polyprotein = Genome polyprotein (dengue virus type 2, UniProt P29990); assay: Dengue-2 NS5 methyltransferase inhibitors, primary screen, biochemical, confirmation dose response (AID 588689); type: functional
[8] = molecular target: T5, Polyadenylate-binding protein 1 (Homo sapiens, UniProt P11940); assay: PABP1 MLLE–PAM2 interaction inhibitors, dose response, miRNA deadenylation inhibitor project, biochemical, fluorescence polarization, Cy5-PAM2 peptide, secondary (AID 602260); type: functional; conditions: read-out: IC50_Mean
[9] = molecular target: T5, Polyadenylate-binding protein 1; assay: PABP1 MLLE–PAM2 binding inhibitor potency, dose response, biochemical, fluorescence polarization, FITC-PAM2 peptide (AID 602259); type: functional; conditions: read-out: IC50_Mean
[10] = molecular target: T6, Rac GTPase-activating protein 1 (Homo sapiens, UniProt Q9H0H5); assay: MgcRacGAP GTPase-activating activity inhibitors, confirmation, biochemical, ADP Hunter fluorescence, primary and confirmatory (AID 624330); type: functional
T6 sequence (Q9H0H5 whole entry): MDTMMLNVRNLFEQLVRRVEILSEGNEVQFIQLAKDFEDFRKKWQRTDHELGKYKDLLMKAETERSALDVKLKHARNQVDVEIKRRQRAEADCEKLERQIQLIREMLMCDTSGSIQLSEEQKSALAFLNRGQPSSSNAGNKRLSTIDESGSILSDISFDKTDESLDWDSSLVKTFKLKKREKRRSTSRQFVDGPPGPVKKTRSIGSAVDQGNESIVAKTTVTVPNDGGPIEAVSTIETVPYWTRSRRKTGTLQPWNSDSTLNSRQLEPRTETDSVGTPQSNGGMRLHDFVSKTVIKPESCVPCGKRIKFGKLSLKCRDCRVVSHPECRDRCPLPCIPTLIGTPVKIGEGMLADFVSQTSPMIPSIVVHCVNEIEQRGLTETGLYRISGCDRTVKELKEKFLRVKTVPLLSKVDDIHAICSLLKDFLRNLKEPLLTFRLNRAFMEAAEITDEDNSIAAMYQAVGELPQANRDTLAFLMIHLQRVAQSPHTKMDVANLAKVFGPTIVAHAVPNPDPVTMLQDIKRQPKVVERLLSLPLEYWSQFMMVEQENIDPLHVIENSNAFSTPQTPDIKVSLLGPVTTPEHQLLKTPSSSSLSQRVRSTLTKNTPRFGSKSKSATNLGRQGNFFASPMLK

[11] = molecular target: Histone-lysine N-methyltransferase NSD2 (Homo sapiens, UniProt O96028); type: biochemical
Chain of Histone-lysine N-methyltransferase NSD2 (O96028 whole entry): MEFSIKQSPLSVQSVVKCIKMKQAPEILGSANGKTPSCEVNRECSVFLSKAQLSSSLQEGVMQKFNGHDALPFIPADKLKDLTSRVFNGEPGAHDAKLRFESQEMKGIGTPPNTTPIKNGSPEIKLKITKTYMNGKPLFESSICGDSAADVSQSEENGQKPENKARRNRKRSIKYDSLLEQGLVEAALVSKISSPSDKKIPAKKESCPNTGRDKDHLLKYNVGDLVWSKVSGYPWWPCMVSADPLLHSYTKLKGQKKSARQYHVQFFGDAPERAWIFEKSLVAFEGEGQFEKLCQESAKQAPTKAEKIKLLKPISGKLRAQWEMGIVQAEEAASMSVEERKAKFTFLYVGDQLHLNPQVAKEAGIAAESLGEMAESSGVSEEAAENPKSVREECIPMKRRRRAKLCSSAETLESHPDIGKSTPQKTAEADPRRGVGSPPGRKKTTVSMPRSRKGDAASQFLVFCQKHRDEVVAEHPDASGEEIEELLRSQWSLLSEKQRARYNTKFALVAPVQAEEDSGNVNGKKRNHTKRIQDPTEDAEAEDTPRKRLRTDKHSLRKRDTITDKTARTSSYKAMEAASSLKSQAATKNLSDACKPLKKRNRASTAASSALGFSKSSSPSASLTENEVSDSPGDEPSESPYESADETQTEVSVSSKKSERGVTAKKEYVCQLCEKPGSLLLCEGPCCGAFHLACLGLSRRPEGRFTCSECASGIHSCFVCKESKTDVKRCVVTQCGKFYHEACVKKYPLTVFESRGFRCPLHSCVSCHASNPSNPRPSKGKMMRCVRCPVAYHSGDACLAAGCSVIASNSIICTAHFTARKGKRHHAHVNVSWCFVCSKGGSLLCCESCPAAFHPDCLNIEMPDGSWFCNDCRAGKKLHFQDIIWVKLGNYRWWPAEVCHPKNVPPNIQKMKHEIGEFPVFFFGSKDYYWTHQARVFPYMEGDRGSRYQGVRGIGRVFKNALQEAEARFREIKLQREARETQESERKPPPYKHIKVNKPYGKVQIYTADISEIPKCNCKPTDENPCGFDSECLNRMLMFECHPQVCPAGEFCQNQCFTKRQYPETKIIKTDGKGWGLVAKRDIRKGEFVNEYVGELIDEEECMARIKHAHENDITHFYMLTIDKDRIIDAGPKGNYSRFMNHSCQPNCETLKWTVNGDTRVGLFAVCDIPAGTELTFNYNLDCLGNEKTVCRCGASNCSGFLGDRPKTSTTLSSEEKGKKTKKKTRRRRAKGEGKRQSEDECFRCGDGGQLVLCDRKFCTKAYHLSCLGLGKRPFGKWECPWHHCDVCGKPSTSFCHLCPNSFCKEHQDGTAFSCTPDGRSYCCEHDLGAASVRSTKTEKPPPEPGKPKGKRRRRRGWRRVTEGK

T1 sequence (P41145 whole entry): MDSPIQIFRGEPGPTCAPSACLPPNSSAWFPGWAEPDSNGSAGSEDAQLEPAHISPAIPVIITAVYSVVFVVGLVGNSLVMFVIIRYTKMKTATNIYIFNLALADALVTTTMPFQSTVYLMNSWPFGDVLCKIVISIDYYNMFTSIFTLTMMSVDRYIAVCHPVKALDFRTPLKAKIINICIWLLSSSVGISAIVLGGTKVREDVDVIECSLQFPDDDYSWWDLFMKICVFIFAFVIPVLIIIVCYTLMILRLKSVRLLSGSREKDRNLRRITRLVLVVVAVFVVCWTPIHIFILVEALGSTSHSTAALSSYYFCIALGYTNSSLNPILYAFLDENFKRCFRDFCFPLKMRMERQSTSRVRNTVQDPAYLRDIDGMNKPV
T5 sequence (P11940 whole entry): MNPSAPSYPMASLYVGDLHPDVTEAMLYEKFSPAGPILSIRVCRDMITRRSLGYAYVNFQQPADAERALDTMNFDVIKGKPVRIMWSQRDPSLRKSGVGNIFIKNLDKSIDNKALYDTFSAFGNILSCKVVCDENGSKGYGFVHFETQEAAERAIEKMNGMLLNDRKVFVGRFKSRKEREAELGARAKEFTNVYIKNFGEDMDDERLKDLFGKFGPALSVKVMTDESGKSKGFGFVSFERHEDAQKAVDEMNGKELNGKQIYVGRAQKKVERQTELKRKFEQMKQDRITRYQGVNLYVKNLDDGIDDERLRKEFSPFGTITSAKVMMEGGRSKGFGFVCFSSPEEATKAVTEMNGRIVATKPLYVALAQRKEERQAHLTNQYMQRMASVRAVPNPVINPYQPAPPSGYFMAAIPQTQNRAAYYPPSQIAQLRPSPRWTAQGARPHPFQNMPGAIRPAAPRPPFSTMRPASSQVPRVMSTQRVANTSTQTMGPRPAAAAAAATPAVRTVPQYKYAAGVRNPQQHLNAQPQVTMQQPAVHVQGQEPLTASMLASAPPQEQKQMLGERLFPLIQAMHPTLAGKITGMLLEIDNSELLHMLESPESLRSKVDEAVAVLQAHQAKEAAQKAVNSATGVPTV
Chain of Induced myeloid leukemia cell differentiation protein Mcl-1 (Q07820 whole entry): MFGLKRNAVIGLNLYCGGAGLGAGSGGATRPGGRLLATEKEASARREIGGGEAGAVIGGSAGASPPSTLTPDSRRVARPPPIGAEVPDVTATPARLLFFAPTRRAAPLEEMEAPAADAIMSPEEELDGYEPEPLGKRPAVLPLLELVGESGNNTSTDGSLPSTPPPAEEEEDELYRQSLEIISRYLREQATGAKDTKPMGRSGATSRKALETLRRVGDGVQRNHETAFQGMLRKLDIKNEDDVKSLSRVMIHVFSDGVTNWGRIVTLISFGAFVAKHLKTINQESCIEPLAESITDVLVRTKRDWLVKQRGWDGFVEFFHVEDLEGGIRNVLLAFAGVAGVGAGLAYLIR
Chain of Mu-type opioid receptor (P35372 whole entry): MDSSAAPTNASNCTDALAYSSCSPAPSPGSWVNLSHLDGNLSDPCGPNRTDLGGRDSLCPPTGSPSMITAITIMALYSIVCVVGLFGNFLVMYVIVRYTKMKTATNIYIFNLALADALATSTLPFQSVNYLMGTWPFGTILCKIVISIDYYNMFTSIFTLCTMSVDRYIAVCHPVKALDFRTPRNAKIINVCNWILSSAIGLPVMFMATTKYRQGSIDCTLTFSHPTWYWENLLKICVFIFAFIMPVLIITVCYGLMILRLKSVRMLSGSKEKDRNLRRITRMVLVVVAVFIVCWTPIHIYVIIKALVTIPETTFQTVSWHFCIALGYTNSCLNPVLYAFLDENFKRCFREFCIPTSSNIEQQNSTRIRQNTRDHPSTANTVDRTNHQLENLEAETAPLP
Chain of Hexokinase (Q38C41 whole entry): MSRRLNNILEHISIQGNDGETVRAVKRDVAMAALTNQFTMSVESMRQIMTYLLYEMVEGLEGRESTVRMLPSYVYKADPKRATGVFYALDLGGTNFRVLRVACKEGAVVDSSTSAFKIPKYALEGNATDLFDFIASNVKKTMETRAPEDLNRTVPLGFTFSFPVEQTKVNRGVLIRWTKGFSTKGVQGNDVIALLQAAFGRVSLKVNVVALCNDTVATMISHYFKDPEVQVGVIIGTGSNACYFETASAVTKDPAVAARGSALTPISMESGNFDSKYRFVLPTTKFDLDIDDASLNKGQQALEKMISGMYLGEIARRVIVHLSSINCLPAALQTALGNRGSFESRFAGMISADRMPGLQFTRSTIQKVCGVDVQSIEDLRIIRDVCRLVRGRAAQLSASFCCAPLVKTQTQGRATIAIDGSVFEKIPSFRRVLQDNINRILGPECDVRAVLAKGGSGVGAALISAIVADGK
Chain of Genome polyprotein (P29990 2492-3391 limits assumed): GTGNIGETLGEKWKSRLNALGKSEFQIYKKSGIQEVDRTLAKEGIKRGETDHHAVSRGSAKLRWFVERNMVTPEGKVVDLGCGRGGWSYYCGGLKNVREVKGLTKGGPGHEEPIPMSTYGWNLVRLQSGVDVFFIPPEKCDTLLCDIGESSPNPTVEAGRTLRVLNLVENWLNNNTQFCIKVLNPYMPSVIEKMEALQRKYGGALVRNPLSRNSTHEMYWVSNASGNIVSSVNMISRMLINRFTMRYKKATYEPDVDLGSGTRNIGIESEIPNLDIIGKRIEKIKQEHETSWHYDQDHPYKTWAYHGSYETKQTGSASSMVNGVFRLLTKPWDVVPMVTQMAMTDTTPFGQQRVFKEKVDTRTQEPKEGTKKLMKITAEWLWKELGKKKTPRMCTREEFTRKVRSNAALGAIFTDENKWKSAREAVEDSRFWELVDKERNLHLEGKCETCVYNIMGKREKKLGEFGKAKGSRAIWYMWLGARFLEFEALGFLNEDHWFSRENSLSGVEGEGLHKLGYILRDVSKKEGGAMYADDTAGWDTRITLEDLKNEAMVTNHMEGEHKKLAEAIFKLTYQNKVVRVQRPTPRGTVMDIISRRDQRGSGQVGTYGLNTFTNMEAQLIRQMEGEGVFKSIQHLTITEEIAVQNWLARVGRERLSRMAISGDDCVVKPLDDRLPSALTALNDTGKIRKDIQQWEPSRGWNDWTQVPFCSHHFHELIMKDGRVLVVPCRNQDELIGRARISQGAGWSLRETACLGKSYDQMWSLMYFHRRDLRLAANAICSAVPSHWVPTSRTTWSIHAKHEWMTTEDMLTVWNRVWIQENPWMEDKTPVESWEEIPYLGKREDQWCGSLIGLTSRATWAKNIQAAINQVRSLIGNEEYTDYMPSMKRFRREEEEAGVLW
Chain of Delta-type opioid receptor (P41143 whole entry): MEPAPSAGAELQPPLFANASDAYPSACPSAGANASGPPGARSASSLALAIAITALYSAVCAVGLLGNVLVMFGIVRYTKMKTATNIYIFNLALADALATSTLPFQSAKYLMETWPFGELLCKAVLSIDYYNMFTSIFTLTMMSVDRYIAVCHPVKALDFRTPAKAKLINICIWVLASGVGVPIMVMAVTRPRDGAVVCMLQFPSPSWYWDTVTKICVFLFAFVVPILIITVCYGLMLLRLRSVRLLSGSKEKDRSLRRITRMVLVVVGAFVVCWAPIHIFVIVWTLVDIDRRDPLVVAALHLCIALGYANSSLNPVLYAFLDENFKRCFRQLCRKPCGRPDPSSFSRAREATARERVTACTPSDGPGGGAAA

Structure (SMILES): CN(C)c1ccc(NC(=O)Cn2sc3ccccc3c2=O)cc1
IC50 (Hexokinase): 7.29 µM (active)

IC50 (Mu-type opioid receptor): > 32 µM (inactive)
IC50 [1]: > 32 µM (inactive)
IC50 [2]: 2.29 µM (active)
IC50 [3]: 0.532 µM (active)
Structure (SMILES): COc1ccc(CN(CCNC(=O)c2ccc(CNS(=O)(=O)c3ccc(C)cc3)cc2)C(C)C)cc1

IC50 [4]: 0.472 µM (active)
Structure (SMILES): O=C(NCCc1ccccc1)Nc1ccc2nc(-c3ccco3)c(-c3ccco3)nc2c1

EC50 [5]: 19.5 µM (inconclusive)
EC50 [6]: 10.1 µM (active)
IC50 [7]: > 54 µM (active)
IC50 (Troponin, cardiac muscle): 20.9 µM (inactive)
IC50 (Genome polyprotein): 51 µM (active)
IC50 [8]: > 66 µM (inactive)
IC50 [9]: 53.2 µM (inactive)
IC50 [10]: 159 µM (active)
AC50 [11]: 10.8 µM (active)
Structure (SMILES): O=C(O)c1ccc2nc(-c3ccco3)c(-c3ccco3)nc2c1
